From PubChem BioAssay (NCI)
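Method: 48-hour compound exposure of cells in 96-well plates, five concentrations, linear interpolation of endpoints. Abbreviation: GI50, concentration required for 50% inhibition of growth. Definition used: TGI = concentration required for complete inhibition of growth.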

Legend:
Experiment in all cases: NCI tumour cell line growth inhibition, 48 h
SF-295 CNS = system: SF-295 CNS
SK-MEL-2 melanoma = system: SK-MEL-2 melanoma
UO-31 renal = system: UO-31 renal
HCC-2998 colon = system: HCC-2998 colon
K-562 leukemia = system: K-562 leukemia
A498 renal = system: A498 renal
SK-MEL-28 melanoma = system: SK-MEL-28 melanoma
MOLT-4 leukemia = system: MOLT-4 leukemia
CCRF-CEM leukemia = system: CCRF-CEM leukemia
A549 NSCLC = system: A549 NSCLC
SN12C renal = system: SN12C renal
SF-539 CNS = system: SF-539 CNS
KM12 colon = system: KM12 colon
ACHN renal = system: ACHN renal
OVCAR-8 ovarian = system: OVCAR-8 ovarian
NCI-H226 lung = system: NCI-H226 lung
HL-60(TB) leukemia = system: HL-60(TB) leukemia
RXF 393 renal = system: RXF 393 renal
MCF7 breast = system: MCF7 breast
SW-620 colon = system: SW-620 colon
SK-OV-3 ovarian = system: SK-OV-3 ovarian
T-47D breast = system: T-47D breast
SK-MEL-5 melanoma = system: SK-MEL-5 melanoma
HCT-116 colon = system: HCT-116 colon
OVCAR-3 ovarian = system: OVCAR-3 ovarian
BT-549 breast = system: BT-549 breast
HOP-62 NSCLC = system: HOP-62 NSCLC
SR leukemia = system: SR leukemia
SNB-75 CNS = system: SNB-75 CNS
SF-268 CNS = system: SF-268 CNS
DU-145 prostate = system: DU-145 prostate
U251 CNS = system: U251 CNS
MDA-MB-231 breast = system: MDA-MB-231 breast
CAKI-1 renal = system: CAKI-1 renal
LOX IMVI melanoma = system: LOX IMVI melanoma
MALME-3M melanoma = system: MALME-3M melanoma
HS 578T breast = system: HS 578T breast
MDA-MB-435 = system: MDA-MB-435
OVCAR-4 ovarian = system: OVCAR-4 ovarian
786-0 renal = system: 786-0 renal
HCT-15 colon = system: HCT-15 colon
UACC-257 melanoma = system: UACC-257 melanoma
OVCAR-5 ovarian = system: OVCAR-5 ovarian
NCI/ADR-RES ovarian = system: NCI/ADR-RES ovarian
SNB-19 CNS = system: SNB-19 CNS
RPMI-8226 leukemia = system: RPMI-8226 leukemia
NCI-H460 lung = system: NCI-H460 lung
HOP-92 NSCLC = system: HOP-92 NSCLC
NCI-H522 lung = system: NCI-H522 lung
IGROV1 ovarian = system: IGROV1 ovarian
PC-3 prostate = system: PC-3 prostate
HT29 colon = system: HT29 colon
UACC-62 melanoma = system: UACC-62 melanoma
NCI-H23 lung = system: NCI-H23 lung
M14 melanoma = system: M14 melanoma
COLO 205 colon = system: COLO 205 colon
TK-10 renal = system: TK-10 renal

For `Nc1c(C(=O)c2ccc(-c3cccnc3)cc2)cnn1-c1ccc(F)cc1`, the GI50 (SF-295 CNS) was > 25 µM, the TGI (SF-295 CNS) was > 25 µM and the GI50 (SK-MEL-2 melanoma) was > 25 µM. For the same molecule, the TGI (SK-MEL-2 melanoma) was > 25 µM, the GI50 (UO-31 renal) was > 12.8 µM and the TGI (UO-31 renal) was > 22 µM. For the same molecule, the GI50 (HCC-2998 colon) was > 25 µM, the TGI (HCC-2998 colon) was > 25 µM and the GI50 (K-562 leukemia) was > 25 µM. The TGI (K-562 leukemia) was > 25 µM, the GI50 (A498 renal) was > 18.8 µM and the TGI (A498 renal) was > 25 µM. For the same molecule, the GI50 (SK-MEL-28 melanoma) was > 17.4 µM, the TGI (SK-MEL-28 melanoma) was > 25 µM and the GI50 (MOLT-4 leukemia) was > 25 µM. The TGI (MOLT-4 leukemia) was > 25 µM, the TGI (CCRF-CEM leukemia) was > 25 µM and the GI50 (A549 NSCLC) was > 14.4 µM. The TGI (A549 NSCLC) was > 25 µM, the GI50 (SN12C renal) was > 19.5 µM and the TGI (SN12C renal) was > 25 µM. The GI50 (SF-539 CNS) was > 16.7 µM, the TGI (SF-539 CNS) was > 25 µM and the GI50 (KM12 colon) was > 20.8 µM. For the same molecule, the TGI (KM12 colon) was > 25 µM, the GI50 (ACHN renal) was > 10.9 µM and the TGI (ACHN renal) was > 16 µM. For the same molecule, the GI50 (OVCAR-8 ovarian) was > 17.5 µM, the TGI (OVCAR-8 ovarian) was > 25 µM and the GI50 (NCI-H226 lung) was > 16.2 µM. For the same molecule, the TGI (NCI-H226 lung) was > 25 µM, the GI50 (HL-60(TB) leukemia) was > 13.8 µM and the TGI (HL-60(TB) leukemia) was > 25 µM. For the same molecule, the GI50 (RXF 393 renal) was 14.5 µM, the TGI (RXF 393 renal) was > 25 µM and the GI50 (MCF7 breast) was > 25 µM. For the same molecule, the TGI (MCF7 breast) was > 25 µM, the GI50 (SW-620 colon) was > 22.4 µM and the TGI (SW-620 colon) was > 25 µM. The GI50 (SK-OV-3 ovarian) was > 14.2 µM, the TGI (SK-OV-3 ovarian) was > 23 µM and the GI50 (T-47D breast) was 9.72 µM. The TGI (T-47D breast) was > 21.7 µM, the GI50 (SK-MEL-5 melanoma) was > 15.2 µM and the TGI (SK-MEL-5 melanoma) was > 25 µM. The GI50 (HCT-116 colon) was > 14 µM, the TGI (HCT-116 colon) was > 25 µM and the GI50 (OVCAR-3 ovarian) was > 22.8 µM. For the same molecule, the TGI (OVCAR-3 ovarian) was > 25 µM, the GI50 (BT-549 breast) was > 25 µM and the TGI (BT-549 breast) was > 25 µM. The GI50 (HOP-62 NSCLC) was > 18.7 µM, the TGI (HOP-62 NSCLC) was > 25 µM and the GI50 (SR leukemia) was > 25 µM. For the same molecule, the TGI (SR leukemia) was > 25 µM, the GI50 (SNB-75 CNS) was 11.3 µM and the TGI (SNB-75 CNS) was > 25 µM. For the same molecule, the GI50 (SF-268 CNS) was > 15.8 µM, the TGI (SF-268 CNS) was > 25 µM and the GI50 (DU-145 prostate) was > 25 µM. The TGI (DU-145 prostate) was > 25 µM, the GI50 (U251 CNS) was > 15.2 µM and the TGI (U251 CNS) was > 25 µM. The GI50 (MDA-MB-231 breast) was > 13.1 µM, the TGI (MDA-MB-231 breast) was > 25 µM and the GI50 (CAKI-1 renal) was > 25 µM. The TGI (CAKI-1 renal) was > 25 µM, the GI50 (LOX IMVI melanoma) was > 25 µM and the TGI (LOX IMVI melanoma) was > 25 µM. For the same molecule, the GI50 (MALME-3M melanoma) was 11 µM, the TGI (MALME-3M melanoma) was > 20.3 µM and the GI50 (HS 578T breast) was > 25 µM. The TGI (HS 578T breast) was > 25 µM, the GI50 (MDA-MB-435) was > 25 µM and the TGI (MDA-MB-435) was > 25 µM. The GI50 (OVCAR-4 ovarian) was 8.41 µM, the TGI (OVCAR-4 ovarian) was > 24 µM and the GI50 (786-0 renal) was > 18.4 µM. For the same molecule, the TGI (786-0 renal) was > 25 µM, the GI50 (HCT-15 colon) was > 20.2 µM and the TGI (HCT-15 colon) was > 25 µM. The GI50 (UACC-257 melanoma) was > 22.4 µM, the TGI (UACC-257 melanoma) was > 25 µM and the GI50 (OVCAR-5 ovarian) was > 25 µM. The TGI (OVCAR-5 ovarian) was > 25 µM, the GI50 (NCI/ADR-RES ovarian) was > 19.5 µM and the TGI (NCI/ADR-RES ovarian) was > 25 µM. The GI50 (SNB-19 CNS) was > 25 µM, the TGI (SNB-19 CNS) was > 25 µM and the GI50 (RPMI-8226 leukemia) was > 17.5 µM. For the same molecule, the TGI (RPMI-8226 leukemia) was > 25 µM, the GI50 (NCI-H460 lung) was > 14.2 µM and the TGI (NCI-H460 lung) was > 25 µM. For the same molecule, the GI50 (HOP-92 NSCLC) was > 25 µM, the TGI (HOP-92 NSCLC) was > 25 µM and the GI50 (NCI-H522 lung) was > 12.7 µM. The TGI (NCI-H522 lung) was > 23.1 µM, the GI50 (IGROV1 ovarian) was 24.3 µM and the TGI (IGROV1 ovarian) was > 25 µM. The GI50 (PC-3 prostate) was > 25 µM, the TGI (PC-3 prostate) was > 25 µM and the GI50 (HT29 colon) was > 21.6 µM. For the same molecule, the TGI (HT29 colon) was > 25 µM, the GI50 (UACC-62 melanoma) was > 21.1 µM and the TGI (UACC-62 melanoma) was > 25 µM. The GI50 (NCI-H23 lung) was > 22.7 µM, the TGI (NCI-H23 lung) was > 25 µM and the GI50 (M14 melanoma) was > 25 µM. For the same molecule, the TGI (M14 melanoma) was > 25 µM, the GI50 (COLO 205 colon) was > 21.9 µM and the TGI (COLO 205 colon) was > 25 µM. For the same molecule, the GI50 (TK-10 renal) was > 19.3 µM and the TGI (TK-10 renal) was > 25 µM.
